The results in this text go back to PMC9296036, “A peptide interfering with the dimerization of oncogenic KITENIN protein and its stability suppresses colorectal tumour progression” (Clinical and Translational Medicine, 2022).

The test has as its target T1, KITENIN homodimer (Homo sapiens, UniProt Q8TAA9).
T1 construct: Lysates of 293T cells expressing full‐length KITENIN‐myc; expressed in transfected cells; host or cells: Caco2
T1 sequence (Q8TAA9 1-524): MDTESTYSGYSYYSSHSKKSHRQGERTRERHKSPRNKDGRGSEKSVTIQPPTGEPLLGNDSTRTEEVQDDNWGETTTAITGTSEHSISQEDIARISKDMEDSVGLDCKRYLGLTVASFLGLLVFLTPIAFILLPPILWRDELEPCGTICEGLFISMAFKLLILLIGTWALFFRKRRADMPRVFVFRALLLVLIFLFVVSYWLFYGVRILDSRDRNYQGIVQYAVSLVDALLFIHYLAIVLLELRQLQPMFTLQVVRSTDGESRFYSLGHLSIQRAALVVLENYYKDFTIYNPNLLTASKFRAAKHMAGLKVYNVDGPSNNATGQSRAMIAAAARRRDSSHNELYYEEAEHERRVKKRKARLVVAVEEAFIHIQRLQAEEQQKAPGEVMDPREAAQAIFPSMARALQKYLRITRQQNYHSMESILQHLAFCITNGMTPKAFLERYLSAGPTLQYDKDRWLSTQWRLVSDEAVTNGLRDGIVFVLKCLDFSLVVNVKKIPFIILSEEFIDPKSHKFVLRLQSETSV
As to the kind of experiment: KITENIN homodimerization in Caco2 cells co-expressing KITENIN-V5/Myc (co-immunoprecipitation). Format: cell-based. From the text:
Antibodies against the following proteins were obtained from the indicated suppliers: Na^+/K^+ ATPase, GFP and tubulin (Santa Cruz Biotechnology); c‐Jun, p‐c‐Jun, ERK, p‐ERK, c‐MET, p‐c‐MET and GST (Cell Signaling Technology); V5, Myc (MBL); HA and β‐actin (Sigma); KITENIN (Atlas); His and RACK1, LC3, p62, Myo10, and eukaryotic elongation factor 2 (eEF2) (Abcam). They were used with appropriate secondary antibodies (Thermo). For transient transfection analyses, Caco2, HCT116 and 293T cells were transfected with various plasmids and harvested for immunoblot analysis 48 h after transfection. For most assays using stable cell lines, mixed polyclonal cells were used to exclude clonal variation. […]
FIGURE 2 KAI1 C‐terminal interacting tetraspanin (KITENIN) dimerization‐interfering peptide (KDIP) suppresses KITENIN‐induced enhanced cell invasion through the inhibition of the homodimerization of KITENIN. […] After 48 h of treatment, KITENIN transcripts in cells were analysed by the 2^−ΔΔ ^CT method using Q‐PCR. […] Caco2 cells were co‐transfected with KITENIN‐V5/Myc and treated with or without KDIP or scrambled peptide (scr) and were immunoprecipitated with anti‐V5 antibody and detected by indicated antibodies. Numerals indicated a quantification of the MYC bands normalized to the corresponding V5 bands (left panel). […] Numerals indicated a quantification of the bands observed (left panel). […]

Ends that are not written are not given here.

For the sequence YARVRRRGPRRWRLVSDEAV [KDIP], the “inhibition of dimerization and cell invasion caused by KITENIN overexpression, rank among the 7 peptides of the 449-487 region” value (Caco2 cells co-expressing KITENIN-Myc and KITENIN-V5, co-IP and invasion assay) is “most effective”. Further, the “homodimerization of KITENIN in cells (in words)” value (Caco2 cells co-transfected with KITENIN-V5/Myc, co-IP) is “reduced”.
